We go through 80 molecules from US20070037752A1, “Novel alanyl-amino peptidase inhibitors for functionally influencing different cells and treating immunological, inflammatory, neuronal, and other diseases” (priority 2003, published 2007).

Read-outs that look alike come from different tables or passages of the source.

The target in the assay is alanyl aminopeptidases (APN) (Homo sapiens, UniProt P15144). Put plainly: Inhibition of alanyl aminopeptidase enzymatic activity, fluorogenic substrate (Ala)2-rhodamine 110. Type of assay: biochemical. Here is the method: The inhibition characteristics measured are referred to as IC-50 values or ID50 values (the latter marked with “*”) for said enzyme. The enzymatic activity was determined by means of the fluorogenic substrate/product (Ala)2-rhodamine 110.

Where [1] appears, read: Table 8, starred values = ID50, read-out: ID50 APN (values marked with *).
[2] abbreviates: Table 8, unstarred values, read-out: IC50APN.
The mark [3] stands for this setting: Table 9, starred values = ID50, read-out: ID50 APN (values marked with *).
The mark [4] stands for this setting: Table 9, unstarred values, read-out: IC50APN.

alanyl aminopeptidases (APN), sequence (P15144 whole entry, species assumed): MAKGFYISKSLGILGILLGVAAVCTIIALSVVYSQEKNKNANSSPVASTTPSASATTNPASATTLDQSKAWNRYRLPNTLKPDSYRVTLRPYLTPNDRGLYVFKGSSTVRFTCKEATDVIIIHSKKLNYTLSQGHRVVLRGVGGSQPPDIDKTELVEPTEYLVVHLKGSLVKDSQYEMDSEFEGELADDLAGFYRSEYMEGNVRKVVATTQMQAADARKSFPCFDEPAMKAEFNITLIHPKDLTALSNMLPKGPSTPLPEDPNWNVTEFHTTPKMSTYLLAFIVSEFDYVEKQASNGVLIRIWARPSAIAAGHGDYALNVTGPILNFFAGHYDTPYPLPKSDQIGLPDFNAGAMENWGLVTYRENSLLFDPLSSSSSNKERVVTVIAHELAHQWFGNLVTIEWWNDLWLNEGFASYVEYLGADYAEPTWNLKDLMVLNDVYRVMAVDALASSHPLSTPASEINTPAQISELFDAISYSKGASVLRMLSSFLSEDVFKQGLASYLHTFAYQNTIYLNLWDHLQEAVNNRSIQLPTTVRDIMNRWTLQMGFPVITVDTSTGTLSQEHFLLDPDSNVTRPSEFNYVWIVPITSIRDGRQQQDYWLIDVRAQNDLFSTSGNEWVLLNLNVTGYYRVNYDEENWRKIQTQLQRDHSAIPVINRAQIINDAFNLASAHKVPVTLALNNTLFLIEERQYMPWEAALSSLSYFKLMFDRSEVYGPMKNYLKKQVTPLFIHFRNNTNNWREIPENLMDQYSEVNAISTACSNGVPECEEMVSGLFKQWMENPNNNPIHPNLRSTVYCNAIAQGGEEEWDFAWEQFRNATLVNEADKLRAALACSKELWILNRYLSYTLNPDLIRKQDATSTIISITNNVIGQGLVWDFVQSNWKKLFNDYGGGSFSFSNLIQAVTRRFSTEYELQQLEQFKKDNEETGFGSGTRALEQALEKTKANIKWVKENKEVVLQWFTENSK

Take `O=C(O)CC1S/C(=N/N=C/c2ccco2)NC1=O` (centres unmarked) [A8.031]: the IC50 under setting [1] amounted to 48.1 µM.
Turning to `NC(=S)N/N=C/c1ccco1` [A8.032], under setting [2], the IC50 was found to be 50 µM.
Consider `Cc1ccc(Cn2c(SCCC(=O)O)nc3c2c(=O)[nH]c(=O)n3C)cc1` [A8.033], for which the IC50 under setting [1] came out at 53.2 µM.
Take `CC1=NC(N)=NC(C)(C)N1c1c(Cl)cccc1Cl` [A8.034]: the IC50 under setting [2] turned out to be 59.8 µM.
Still for that read-out and setting: then `O=C1C(Cc2ccc(O)cc2)NC(=S)N1c1ccccc1` (centres unmarked) [A8.035], with 66.6 µM; and `CC(=O)C1C(c2ccc(N(C)C)cc2)C2C(=O)N(C3CCCCC3)C(=O)N2C1c1sccc1C` (centres unmarked) [A8.036], with 68 µM.
As for `Cn1c(=O)c2c(ncn2CC(=O)N/N=C/C=C\c2ccco2)n(C)c1=O` [A8.037], the IC50 under setting [1] is 79.8 µM.
On the same count and under the same terms, then `Cc1cccc[n+]1OC(=O)N1CCCCC1` [A8.038], with 96.7 µM; and `CCCC1NC(=S)N(c2ccccc2)C1=O` (centres unmarked) [A8.040], with 154 µM; and `COc1ccc(C2C(C(=O)c3ccccc3)C(c3ccccc3)C(C(=O)NCc3ccc(F)cc3)N2C(=O)NC2CCCCC2)cc1` (centres unmarked) [A8.041], with 231 µM.
In the case of `COC(=O)C1=C(N)N2C(=O)CSC2=C(C(=O)OC)C1` [A9.001], where the note is “Table 9, unstarred values”, the IC50APN result is “‘very high ac- tive’, beyond measure”.
Regarding `CC1=C(C#N)C(=O)N(CCO)C(=O)/C1=C\c1ccc(-c2cc(Cl)ccc2Cl)o1` [A9.002], the IC50 under setting [3] was 1.2 µM.
Still for that read-out and setting: then `O=C1c2ccccc2-c2c1[n+]([O-])c1c([n+]2[O-])CCCC1` [A9.003], with 2 µM.
Consider `CCOC(=O)c1ccc(-c2ccc(/C=C3\C(=O)N(CCO)C(=O)C(C#N)=C3C)o2)cc1` [A9.005], for which the IC50 under setting [3] worked out at 2.7 µM.
Take `COC(=O)C1=C(C(=O)OC)C(c2cc(Br)ccc2O)c2sc(O)nc2S1` (centres unmarked) [A9.006]: the IC50 under setting [4] came out at 4.7 µM.
Same read-out and setting: then `COc1ccc(/C=N/NC(=O)C2=C(C)Nc3ccccc3S2)cc1Cn1nc(C)c(Br)c1C` [A9.007], with 4.8 µM; and `COC(=O)c1ccc(-c2ccc(/C=C3\C(=O)N(CCCO)C(=O)C(C#N)=C3C)o2)cc1` [A9.008], with 5 µM.
On the same count and under the same terms, then `CC1CCN(C(=O)/C(=C\c2ccco2)NC(=O)c2ccc(Cl)cc2)CC1` [A9.009], with 6.2 µM.
Still for that read-out and setting: then `COC(=O)c1cccc(-c2ccc(/C=C3\C(=O)N(CCO)C(=O)C(C#N)=C3C)o2)c1` [A9.010], with 6.3 µM; and `CCc1cccc(CC)c1NC(=S)N/N=C1\C(=O)N(CN2CC(C)CC(C)C2)c2ccccc21` (centres unmarked) [A9.011], with 6.7 µM.
As for `COC(=O)C1=C(N)N2C(=O)CSC2=C(C(=O)OC(C)C)C1` [A9.012], under setting [4], the IC50 was 5.9 µM.
On the same count and under the same terms, then `CCOC(=O)N1CCc2c(sc(NC(=O)c3ccc(F)cc3)c2C(=O)Nc2ccc(Br)cc2)C1` [A9.013], with 7.3 µM; and `CC(=O)NC1OCC(O)C(O)C1O` (centres unmarked) [A9.014], with 7.3 µM; and `COc1ccc(Cl)cc1C(=O)N/C(=C/c1ccco1)C(=O)N1CC2CC(C1)c1cccc(=O)n1C2` (centres unmarked) [A9.015], with 8.1 µM.
Still for that read-out and setting: the figure for `c1coc(-c2nc3cc4ccccc4cc3nc2-c2ccco2)c1` [A9.016] is 8.9 µM; for `N#Cc1cc(N2CC3CC(C2)c2cccc(=O)n2C3)c([N+](=O)[O-])cc1C#N` (centres unmarked) [A9.017] it is 8.9 µM.
On the same count and under the same terms, then `COc1ccc2c(C)nc(Nc3nc(C)c4ccccc4c(=O)n3)nc2c1` [A9.018], with 8.9 µM.
For the molecule `CC1=C(C#N)C(=O)N(CCCO)C(=O)/C1=C\c1ccc(-c2cc(C)c(C)cc2[N+](=O)[O-])o1` [A9.019], the IC50 under setting [4] was 9.7 µM.
The same measure, in the same setting: then `Cc1ccc(/C=N\NC(=O)c2cnccn2)o1` [A9.020], with 9.8 µM.
Take `CCCCOC(=O)c1cccc(-c2ccc(/C=C3\C(=O)N(CCO)C(=O)C(C#N)=C3C)o2)c1` [A9.021]: the IC50 under setting [3] was 10.2 µM.
Consider `O=C(N/C(=C\c1ccco1)C(=O)N1CCCCC1)c1ccco1` [A9.022], for which, under setting [4], the IC50 was 10.6 µM.
Take `Cc1ccc(C(=O)N/C(=C\c2ccco2)C(=O)N2CC3CC(C2)c2cccc(=O)n2C3)cc1` (centres unmarked) [A9.023]: the IC50 under setting [4] was 11 µM.
Still for that read-out and setting: then `CN(C)CCCN1CCN(c2nc(N(C)CC(=O)O)c3ncn(Cc4ccc([N+](=O)[O-])cc4)c3n2)CC1` [A9.024], with 11.8 µM; and `Cc1[nH]c2ccccc2c1C(c1cc(Cl)ccc1O)N1CCOCC1` (centres unmarked) [A9.025], with 11.7 µM.
On the same count and under the same terms, then `Cc1ccc(C(=O)N/C(=C\c2ccco2)C(=O)N2CC3CC(C2)c2cccc(=O)n2C3)cc1C` (centres unmarked) [A9.026], with 11.8 µM; and `CC(C)COc1ccc(C(=O)N/C(=C\c2ccco2)C(=O)N2CCOCC2)cc1` [A9.027], with 13.1 µM.
The same measure, in the same setting: then `O=C(O)c1cc2nc(-c3ccco3)cc(C(F)(F)Cl)n2n1` [A9.028], with 13.2 µM.
`O=C(N/C(=C\c1ccco1)C(=O)N1CCOCC1)c1ccco1` [A9.029]: the IC50 under setting [4] was determined as 13.5 µM.
Same read-out and setting: the figure for `O=C1C2=[N+]([O-])C3CCCCC3[N+]([O-])=C2c2ccccc21` (centres unmarked) [A9.030] is 13.7 µM; for `N/C(=N/OS(=O)(=O)c1ccc(C(F)(F)F)cc1)C1CSCCS1` (centres unmarked) [A9.031] it is 13.4 µM; for `O=C(CCCCCN1C(=O)c2cccc3cccc(c23)C1=O)NO` [A9.032] it is 14.1 µM.
The same measure, in the same setting: the figure for `COc1nncc(-c2cnnc(SC)n2)n1` [A9.033] is 14.3 µM; for `Clc1ccc(-n2cc3c(-c4ccco4)nnc(-c4nc5ccccc5s4)c3n2)cc1` [A9.034] it is 14.3 µM; for `O=c1[nH]c(/C=C/c2ccco2)nc2ccccc12` [A9.035] it is 14.6 µM.
The same measure, in the same setting: the figure for `COC(=O)c1cc(-c2ccc(/C=C3\C(=O)N(CCCO)C(=O)C(C#N)=C3C)o2)ccc1Cl` [A9.036] is 15.2 µM; for `CC1=C(C#N)C(=O)N(CCCO)C(=O)/C1=C\c1ccc(-c2ccc(Br)cc2)o1` [A9.037] it is 16 µM; for `O=C(O)C1N=NC(c2ccc(F)cc2)=CN1O` (centres unmarked) [A9.038] it is 17.1 µM.
As to `C=CCOC(=O)c1cc(-c2ccc(/C=C3/C(=O)N(CCCO)C(=O)C(C#N)=C3C)o2)ccc1Cl` [A9.040], the IC50 under setting [4] was 18.1 µM.
On the same count and under the same terms, then `Cc1cc(=O)[nH]c(N/N=C/c2ccco2)n1` [A9.041], with 18.2 µM; and `CC(=O)c1cccc(-c2ccc(/C=C3/C(=O)N(CCCO)C(=O)C(C#N)=C3C)o2)c1` [A9.042], with 18.2 µM.
The same measure, in the same setting: the figure for `O=C(N/C(=C\c1ccco1)C(=O)N1CCCC(CO)C1)c1ccccc1` (centres unmarked) [A9.043] is 19 µM; for `O=C(Cc1ccc([N+](=O)[O-])cc1)N1CCOCC1` [A9.044] it is 19.1 µM.
With `CO/N=C(\c1nonc1N)N1CCN(c2ccc([N+](=O)[O-])cc2Cl)CC1` [A9.045], the IC50 under setting [4] stood at 19.2 µM.
On the same count and under the same terms, then `CN1C/C(=C/c2ccco2)C(=O)/C(=C/c2ccco2)C1` [A9.046], with 19.2 µM; and `CC1CCCCN1S(=O)(=O)c1ccc(NC(=O)/C=C/c2ccco2)cc1` (centres unmarked) [A9.047], with 19.9 µM.
Still for that read-out and setting: the figure for `Cc1cc(C)n(-c2nnc(N)nn2)n1` [A9.048] is 20.3 µM; for `CCCN1C(=O)C(C#N)=C(C)/C(=C\c2ccc(-c3cccc(Cl)c3C)o2)C1=O` [A9.049] it is 20.8 µM.
Still for that read-out and setting: the figure for `COc1ccc(C[C@@H](N)C(=O)N[C@H]2[C@H](O)[C@H](n3cnc4c(N(C)C)ncnc43)O[C@@H]2CO)cc1` [A9.050] is 20.9 µM; for `O=C(N/C(=C\c1ccco1)C(=O)N1CCC(O)CC1)c1ccccc1` [A9.051] it is 21.1 µM; for `O=C(O)c1ccc(-n2c(/C=C/c3ccco3)nc3ccccc3c2=O)cc1` [A9.052] it is 21.2 µM.
Take `CC1=C(C#N)C(O)=NC(=O)/C1=C/c1ccc(-c2ccc(Cl)c(C(=O)OC(C)C)c2)o1` [A9.053]: the IC50 under setting [4] was determined as 21.3 µM.
For the molecule `CN(C)c1c(Cl)cc(/C(=N/O)N2CCOCC2)cc1Cl` [A9.054], the IC50 under setting [4] was 21.4 µM.
For `Cc1cccc(C)c1Nc1c(-c2ccccc2NC(=O)Nc2cccc(Cl)c2)nc2c(C(=O)NCC(C)C)cccn12` [A9.055], the IC50 under setting [4] came to 21.6 µM.
The same measure, in the same setting: then `O=C(/C=C/c1ccco1)Nc1ccc(OCC(=O)N2CCOCC2)cc1` [A9.056], with 21.9 µM; and `CCOC(=O)c1c(C)oc2c1c1c(c3ccccc32)OCN(C2CCS(=O)(=O)C2)C1` (centres unmarked) [A9.057], with 22.3 µM; and `O=C(N/N=C/c1ccco1)c1ccc(=O)[nH]n1` [A9.058], with 22.4 µM.
On the same count and under the same terms, then `Cn1nc(-c2cccs2)nc2c(=O)n(C)c(=O)nc1-2` [A9.059], with 25 µM; and `CN(C)CCCN1CCN(c2nc(N(C)CC(=O)O)c3ncn(Cc4ccc(C(F)(F)F)cc4)c3n2)CC1` [A9.060], with 23 µM; and `CCOC(=O)C1=C2SCC(=O)N2C(N)=C(C#N)C1` [A9.061], with 23.1 µM.
Regarding `O=C1c2cccc3c(Br)c([N+](=O)[O-])cc(c23)C(=O)N1c1cccc([N+](=O)[O-])c1` [A9.062], the IC50 under setting [4] came out at 23.3 µM.
On the same count and under the same terms, then `O=C(Nc1ccc(O)cc1C(=O)O)c1cccc(N2C(=O)c3cccc4c([N+](=O)[O-])ccc(c34)C2=O)c1` [A9.063], with 23.6 µM.
On the same count and under the same terms, then `CCCOC(=O)c1cc(-c2ccc(/C=C3\C(=O)N(CCCO)C(=O)C(C#N)=C3C)o2)ccc1Cl` [A9.064], with 23.8 µM; and `Cn1c(=O)[nH]c2nnc(-c3cccs3)nc2c1=O` [A9.065], with 22.6 µM; and `O=C(N/C(=C\c1ccco1)C(=O)N1CCOCC1)c1ccccc1Cl` [A9.066], with 25.5 µM.
With `Cc1ccc(/C=N/NC(=O)c2nnn(-c3nonc3N)c2CN2CCOCC2)o1` [A9.067], the IC50 under setting [4] came out at 26.7 µM.
The same measure, in the same setting: the figure for `O=C(NC(Sc1ccncn1)C(=O)c1ccccc1)c1ccccc1` (centres unmarked) [A9.068] is 26.9 µM.
On the same count and under the same terms, the figure for `Cc1ccc(Cn2c(SCCC(=O)O)nc3c2c(=O)n(C)c(=O)n3C)cc1` [A9.070] is 28 µM; for `COC(=O)c1ccccc1-c1ccc(/C=C2\C(=O)N(C)C(=O)C(C#N)=C2C)o1` [A9.071] it is 28.1 µM.
Still for that read-out and setting: the figure for `CC1=C(C#N)C(=O)N(CC(C)O)C(=O)/C1=C/c1ccc(-c2cccc(Cl)c2C)o1` (centres unmarked) [A9.072] is 28.6 µM; for `Cc1ccc(C(=O)N/C(=C\c2ccco2)C(=O)N2CCOCC2)cc1C` [A9.073] it is 28.8 µM.
